The source of these data is patent publication US5279835A, “Binder-free orally administrable tablet containing 3-oxygermylpropionic acid” (Sanwa Kagaku Kenkyusho Co. Ltd., priority 1991, dated 1994).

In test [1] the test system is delayed type hypersensitivity reactions (DTH reactions) using sheep red blood cells (SRBCs) as antigens. Put plainly: Delayed type hypersensitivity (DTH) reaction, pododerm swelling, in Sarcoma-180 bearing ICR mice sensitized with SRBCs. To be noted: n = 10; for Pododerm Swelling, Average: Table 1-2 (MGWC 55.5, SMG 115.5). Type of test: in vivo. The procedure:
The effects of 3-OGP, salts and hydroxypropylcellulose incorporated in compositions were investigated by delayed type hypersensitivity reactions (DTH reactions) using sheep red blood cells (SRBCs) as antigens.
Sarcoma-180 cells (10^6) were intraperitoneally transplanted in test animals--ICR mice (seven-week old), 10 for each group. Then, SRBCs (10^6) were injected into each animal through the vein of the tail for sensitization.
Four days later, SRBCs (2×10^8) were injected into the pododerm of the right hind leg to induce the DTH reaction and, 24 hours later, the thickness of the pododerm was measured. Note that the test drugs were administrated to the animals in the form of a feed mix 4 days before sensitization.

For test [2], the system named is spontaneous nephritis in MRL/1 mice. Put plainly: Prevention of spontaneous nephritis in MRL/1 mice (urinary protein, blood urea nitrogen, histopathology). Format: in vivo. How it is done: The effect of 3-OGP on preventing spontaneous nephritis in MRL/1 mice was investigated.
2-B) The preparation of Ex. 6 was orally administrated to test animals--MRL/1 mice of six-week old, 15 for each group--at daily doses of 0.1 mg/kg, 1.0 mg/kg and 10.0 mg/kg calculated as 3-OGP twice a week over 12 weeks. It is noted that this preparation was administrated to each animal in the form of a feed mix. […] In addition, the urea nitrogen content of blood on the day following the final administration were measured to make sero-biochemical as well as histopathological estimations of the action of the 3-OGP compositions on nephritis.
It is noted that the urinary protein was determined with Protein Pretest (made by Wako Junyaku) and the urea nitrogen content of blood was estimated with Urea Nitrogen Test B: Urease/Indophenol Method (made by Wako Junyaku).

Consider “3-oxygermylpropionic acid [Example 3-OGP]”, for which the “Pododerm Swelling, Average Standard Deviation” value is 55.1 3.3 × 0.01 mm in test [1] (Table 1-1, first series (MGWC 47.1, SMG 115.4), 0.1 mg/kg in feed mix); 73.8 5.7 × 0.01 mm in test [1] (Table 1-1, first series (MGWC 47.1, SMG 115.4), 1 mg/kg in feed mix); 70.2 5.1 × 0.01 mm in test [1] (Table 1-1, first series (MGWC 47.1, SMG 115.4), 10 mg/kg in feed mix); 64.3 6.4 × 0.01 mm in test [1] (Table 1-1, second series (MGWC 48.9, SMG 117.4), 0.1 mg/kg in feed mix); 72.1 5.5 × 0.01 mm in test [1] (Table 1-1, second series (MGWC 48.9, SMG 117.4), 1 mg/kg in feed mix); 66.3 3.1 × 0.01 mm in test [1] (Table 1-1, second series (MGWC 48.9, SMG 117.4), 10 mg/kg in feed mix). Besides, the figures for the “Pododerm Swelling, Average” value in test [1] (0.1 mg/kg in feed mix), in test [1] (1 mg/kg in feed mix) and in test [1] (10 mg/kg in feed mix) were 63.5 × 0.01 mm, 77.0 × 0.01 mm and 73.2 × 0.01 mm, respectively. For the same substance, in test [2] (10 mg/kg of 3-OGP), the “increase in urea nitrogen content of blood” value is reported as “significantly inhibited”. The “increase in urinary protein” value in test [2] (10 mg/kg of 3-OGP, after 12 weeks) was “significantly inhibited even after 12 weeks”. Also, in test [2] (group treated with 3-OGP, control 60%), the “glomeruli with lesion severer than mediocre membranous glomerulonephritis” value is listed as 20-36%. Further, in test [2] (groups treated with 3-OGP, control increased after 9 to 10 weeks), the urinary protein increase entry is “any urinary protein increase was not found”. Further, the “Urinary Protein in %” value in test [2] (preparation of Ex. 6, 0.1 mg/kg as 3-OGP, after 10 weeks, positive = 100 mg/dl or more (control 52.3)) came out at 28.7%; in test [2] (preparation of Ex. 6, 0.1 mg/kg as 3-OGP, after 11 weeks (control 66.6)), 47.1%; in test [2] (preparation of Ex. 6, 0.1 mg/kg as 3-OGP, after 12 weeks (control 91.3)) it was 65.6%; in test [2] (preparation of Ex. 6, 1 mg/kg as 3-OGP, after 10 weeks (control 52.3)) it was 28.1%; in test [2] (preparation of Ex. 6, 1 mg/kg as 3-OGP, after 11 weeks (control 66.6)) it was 23.8%; in test [2] (preparation of Ex. 6, 1 mg/kg as 3-OGP, after 12 weeks (control 91.3)), 51.0%. Further, the “Urinary Protein in %” value in test [2] (preparation of Ex. 6, 10 mg/kg as 3-OGP, after 10 weeks (control 52.3)) was 15.8%; in test [2] (preparation of Ex. 6, 10 mg/kg as 3-OGP, after 11 weeks (control 66.6)), 27.5%; in test [2] (preparation of Ex. 6, 10 mg/kg as 3-OGP, after 12 weeks (control 91.3)), 53.3%.
